From US6248744A, “Method for the treatment of pain, including chronic and female specific pain” (priority 2000, dated 2001)

Columns and labels:
[1] = tested on: ganglionic nicotinic receptors; conditions: agonist of ganglionic nicotinic receptors; cited from earlier work
rats and mice = conditions: cited from earlier work
[2] = tested on: central nicotinic receptor subtypes; conditions: cited from earlier work
animal studies = conditions: cited from earlier work
[3] = tested on: male and female Sprague Dawley rats; assay: Intraplantar capsaicin mechanical hyperalgesia, hindpaw withdrawal threshold with von Frey filaments, intrathecal injection; assay type: in vivo, rat; conditions: for average % reduction in withdrawal threshold over the 2 hours after capsaicin injection: % change from pre-capsaicin threshold, capsaicin 30 μg intraplantar, 50 μg i.t.
Procedure: Adult male and female Sprague Dawley rats were prepared with insertion of intrathecal catheters as described above. Capsaicin (8-methyl-N-vanillyl nonamide) was prepared in a concentration of 30 μg in 10 μl. Briefly, capsaicin powder was first dissolved in Tween 80, then in isotonic saline and heated to 70° C. The solution obtained was filtered and stored in sterile glass vials. Each group of rats represents 6 males and 6 females tested at the same time and each animal received only one injection in the left plantar surface of the hindpaw. Each animal was lightly anesthetized under halothane and immediately after immobility, received intradermal capsaicin, 30 μg injected through a 28 G needle, in the center of the plantar surface. This dose was chosen because it produces mechanical hyperalgesia lasting at least 2 hours (Gilchrist, H. D., Allard, B. L., and Simone, D. A. Enhanced withdrawal responses to heat and mechanical stimuli following intraplantar injection of capsaicin in rats. Pain 1996;67: 179-188).
Hindpaw withdrawal thresholds were tested before capsaicin injection and every 30 minutes thereafter for 2 hours, using von Frey filaments and the up-down method described above. Care was taken to avoid direct contact of the injection point when measuring withdrawal threshold with the filaments. Intrathecal saline, or (E)-N-methyl-4-(3-pyridinyl)-3-butene-1-amine(50 μg) was injected prior to capsaicin.
Intraplantar injection of capsaicin produced a rapid onset, sustained reduction in withdrawal threshold in both sexes. However, male and female control animals differed in withdrawal threshold at baseline and after capsaicin, and the sexes were therefore compared by % change from pre-capsaicin threshold. By this analysis, the average % reduction in withdrawal threshold over the 2 hours after capsaicin injection was 74+/-5.3% in females and 64+/-6.7% in males (p=0.47, NS).

[4] = tested on: male and female Sprague Dawley rats; assay: Latency to hindpaw withdrawal from a focused light heat source after intrathecal injection; assay type: in vivo, rat; conditions: for maximum possible analgesic effect: radiant heat paw withdrawal
Procedure: Trans-metanicotine was administered via intrathecal catheters inserted in male and female Sprague Dawley rats such that their tips were in the upper lumbar region. Analgesia was determined as an increase in the latency to withdrawal of the hindpaw from a focused light heat source. To prevent injury, duration of 30 seconds was not exceeded. The latency to paw withdrawal was determined both before and after intrathecal injection of trans-metanicotine in these rats, and the data were expressed as % maximum possible effect.

neuropathic rat hindlimb = assay: Neuropathic pain model (injury of spinal nerves L5 and L6), allodynia measured with von Frey filaments, intrathecal injection; assay type: in vivo; conditions: one week after nerve injury
Excerpt: Analgesic potency of compounds of the present invention can also be tested in animal models of neuropathic or neurogenic pain. One such model resembles the human condition termed causalgia or reflex sympathetic dystrophy (RSD) secondary to injury of a peripheral nerve. This condition is characterized by hyperesthesia (enhanced sensitivity to a natural stimulus), hyperalgesia (abnormal sensitivity to pain), allodynia (hypersensitivity and pain to normally non-painful stimuli, either thermal or tactile), and spontaneous burning pain. In humans, neuropathic pain tends to be chronic and may be debilitating.
Briefly, in the model used, rats are subjected to a surgical procedure, described by Kim et al. (Kim, S. H. and Chung, J. M. (1992) Pain 50:355-363), designed to reproducibly injure peripheral nerves (spinal nerves L5 and L6). These rats develop a hyperesthetic state, which can be measured, using one or more paradigms known in the art. Here, allodynia was measured by stimulation of neuropathic rat hindlimb using nylon filaments having graded degrees of stiffness.
Sex differences in response to (E)-N-methyl-4-(3-pyridinyl)-3-butene-1-amine were tested using the assay described above. Hypersensitivity to light touch (withdrawal threshold to application of calibrated von Frey filaments) was documented one week later. […]

Clc1ccc(C2CC3CCC2N3)cn1 (stereo not drawn) [Epibatidine]
cardiorespiratory effects [1]: cardiorespiratory effects similar to those of nicotine
analgesic potency relative to morphine (rats and mice): three orders of magnitude higher than morphine

CNCC/C=C/c1cccnc1 [Metanicotine]
selectivity for central nicotinic receptor subtypes compared to peripheral ganglionic and muscular nicotinic receptors [2]: high selectivity
antinociceptive effect (animal studies): dose dependent antinociceptive effect

CNCC/C=C/c1cccnc1 [trans-metanicotine, (E)-N-methyl-4-(3-pyridinyl)-3-butene-1-amine]
average % reduction in withdrawal threshold over the 2 hours after capsaicin injection ([3]; female rats): 74+/-5.3%
analgesia in the capsaicin model, comparison of the sexes ([3]; male and female rats, 50 μg i.t. prior to capsaicin): produced analgesia in this model of pain which was similar between the sexes
average % reduction in withdrawal threshold over the 2 hours after capsaicin injection ([3]; male rats): 64+/-6.7%
maximum possible analgesic effect ([4]; female rats, i.t. injection): 45%
antinociceptive response in females relative to males ([4]; i.t. injection, females vs males): twice as great
duration of the antinociceptive response ([4]; male and female rats, i.t. injection): about 10 minutes
effect at 60 μg compared with 20 μg (ceiling effect) ([4]; male and female rats, i.t., 60 μg): failed to be more effective
dose dependence of the effect on paw withdrawal latency to a radiant heat stimulus ([4]; male and female rats, i.t., up to a dose of 20 μg): dose dependent inhibition of paw withdrawal latency
maximum possible analgesic effect ([4]; male rats, i.t. injection): 20%
return of the level of sensitivity to presurgery levels (mean ±SEM) (neuropathic rat hindlimb; female rats, intrathecal, 100 μg): 50±4%
effect on hypersensitivity to light touch (von Frey withdrawal threshold) (neuropathic rat hindlimb; male rats, intrathecal injection): no effect
